Experimental data reported in PMC11744668, “2-Cyanopyrimidine-Containing Molecules for N-Terminal Selective Cyclization of Phage-Displayed Peptides” (ACS Chemical Biology, 2025).

What was measured:
[1] = Peptide cyclization kinetics with model peptide CGK-5; conditions: 500 μM CGK-5, 550 μM linker, RT; for cyclization of CGK-5 (in words): ABC buffer pH 7.4, 1 mM TCEP, 2 h, LC-MS; for half-life of the cyclization reaction with CGK-5: ammonium bicarbonate (ABC) buffer, TCEP, HPLC, one-phase association, mean ± 95% CI, at least three independent experiments
Excerpt: While pCAmCP and mCAmCP gave efficient cyclization of the peptide fusion of sfGFP, we looked to further investigate the specificity of the reaction using peptide kinetic assays. To do this, we first established reactivity of the compounds with a model peptide (CGK-5, Figures 3A and S16) that was composed of two cysteines flanking a region tuned for solubility in buffer (GGKGG) and with a tryptophan residue on the C-terminus for UV absorbance. […] To test the specificity of the reaction for the N-terminal cysteine, we synthesized a peptide analogue (CGK-5Abu, Figures 3D–F and S17) that contained 2-aminobutyric acid in place of the N-terminal cysteine. […] Since these reactions occurred at 500 μM of peptide to allow for analysis on the HPLC, we envision this difference will likely be exaggerated when using lower peptide/protein concentrations. Although it is unlikely at neutral pH, the chloroacetamide moiety can possibly react with nucleophilic amino acids other than cysteine. To defuse this concern, we designed a peptide containing a variety of possibly nucleophilic residues (serine, arginine, tyrosine, histidine, and lysine, but not an internal cysteine) adjacent to the N-terminal cysteine (BCP, Figure S18) and let the peptide react with pCAmCP or mCAmCP. […] On the other hand, peptides that contained an internal cysteine were nearly completely reacted with the chloroacetamide after less than 2 h at the same concentrations (Figure 3B,C). This indicates high specificity for the chloroacetamide reacting with an internal cysteine in comparison to other nucleophilic residues at pH 7.4. […] It could be that the side reaction with TCEP may help mask the chloroacetamide after long incubation periods to prevent it from reacting with less reactive nucleophiles.
The peptide (CGK-5 or CGK-5Abu, 5 mM stock in water) was diluted to 500 μM in ammonium bicarbonate buffer (50 mM, pH 7.5) containing 1.2 mM TCEP. Following dilution of the peptide, the organic linker (10 mM in DMSO) was added to a final concentration of 550 μM. The reaction mixture was incubated while being shaken at RT. At each time point (5, 10, 15, 30, 45, 60, 120, and 240 min), 5 μL of reaction mixture was removed, and the reaction was quenched by the addition of 5 μL of 100 mM cysteine. Following dilution with 20 μL of water, the sample was then analyzed on a Shimadzu HPLC with an LCMS-2020 mass spectrometer attached (10–40% ACN gradient in H2O over 6 min, 0.1% formic acid, 1 mL/min flow rate, Shimadzu C18 250 × 4.6 mm, 5 μm). Peaks corresponding to the cyclized and unreacted forms were then integrated on the Shimadzu LabSolutions software, plotted in GraphPad Prism, and fitted using a one-phase association fitting parameter to determine reaction half-lives.

[2] = tested on: CA5C phages (N-terminal cysteines displayed on pIII); test: Biotin pulldown (capture) assay of CA5C phages; conditions: 100 μM linker, RT; Biotin-CBT, streptavidin beads; vs control phage AAKAA; n = 3
Excerpt: Following the characterization of the linkers for efficient cyclization of peptides, we then looked to characterize pCAmCP and mCAmCP for reactivity toward phage proteins. Some previously developed linkers that generate macrocyclic peptide libraries on phage hinder phage infectivity, which is likely from modifying cysteines within phage coat proteins.[26]−[28] To test if this occurred in the novel linkers, we performed toxicity assays that reacted the phages with different concentrations of linker (50–200 μM), temperatures (22 or 37 °C), and reaction times (3 or 24 h). […] We expressed phages with a CA5C peptide on the N-terminus of pIII. […] Following the precipitation of the phages, they were again reduced with TCEP and were incubated with a Biotin-CBT compound to label any unreacted N-terminal cysteines with biotin, allowing for phage capture on streptavidin beads (Figure 4B). […] Comparison with capture levels of unreacted phages indicated at least 80% and 70% reactivity of pCAmCP and mCAmCP with the CA5C phages, respectively. […]
The purified CA5C phages (10^11 to 10^12 cfu, 98 μL) in binding buffer were incubated with 1 mM TCEP at 37 °C for 30 min. […] Percent phages captured was calculated by (phages input – phages in supernatant)/phages input × 100.

## N#Cc1nccc(NC(=O)CCl)n1 [mCAmCP, 2-chloro-N-(2-cyanopyrimidin-4-yl)acetamide]
[1]
  cyclization of CGK-5 (in words): nearly complete cyclization of the peptide after 2 h
  half-life of the cyclization reaction with CGK-5: 13 ± 3 min
[2]
  percent of phages captured after linker reaction (in words): reduced to levels similar to those of a control phage that lacked N-terminal cysteines

## N#Cc1ncc(NC(=O)CCl)cn1 [pCAmCP, 2-chloro-N-(2-cyanopyrimidin-5-yl)acetamide]
[1]
  cyclization of CGK-5 (in words): nearly complete cyclization of the peptide after 2 h
  half-life of the cyclization reaction with CGK-5: 23 ± 5 min
[2]
  percent of phages captured after linker reaction (in words): reduced to levels similar to those of a control phage that lacked N-terminal cysteines
